What was measured:
[1] = SI (selectivity index) is the ratio of TC50 to EC50; format: functional
[2] = Compound was tested for the drug concentration which reduces the viability of uninfected C8166 cells by 50%; format: cell-based; conditions: human, read-out: TC50 (the source's name)
[3] = system: Human immunodeficiency virus 1; test: Compound was tested for the drug concentration which reduces viral antigen production by 50%; format: functional, organism-based

Row | SMILES | SI [1] | CC50 [2] | EC50 [3]
1 | Cc1cn([C@H]2C[C@H](N=[N+]=[N-])[C@@H](CO)O2)c(=O)[nH]c1=O [ZIDOVUDINE] | > 6 | > 1000 µM | 0.016 µM
2 | Brc1ccc(/C(=N/c2ccccc2)Nc2ccccc2)cc1 | 2 | 200 µM | 100 µM
3 | Clc1ccc(/C(=N/c2ccccc2)Nc2ccccc2)cc1 | 125 | 1000 µM | 8 µM
4 | COc1ccc(/C(=N/c2ccccc2)Nc2ccccc2)cc1 | < 1 | 80 µM | > 80 µM
5 | c1ccc(/N=C(\Nc2ccccc2)c2ccccc2)cc1 | < 1 | 400 µM | > 400 µM
6 | O=[N+]([O-])c1ccc(/C(=N/c2ccccc2)Nc2ccccc2)cc1 | 4 | 80 µM | 20 µM
7 | Cc1ccc(/C(=N/c2ccccc2)Nc2ccccc2)cc1 | < 1 | > 500 µM | > 500 µM
